Results as given in ChEMBL document CHEMBL4689842, “EUbOPEN Chemogenomics Library wave 1” (2021).

Experiments:
[1] = tested on: U2OS; assay: Incucyte cell viability with U2OS; format: toxicity, cell-based; conditions: human, 10 µM, compound concentration 10 uM
[2] = tested on: Fibroblast; assay: Incucyte cell viability with human fibroblast; format: toxicity, cell-based; conditions: 10 µM, compound concentration 10 uM
[3] = 0 h, replicate number 2, timepoint 0 hours
[4] = 6 h, replicate number 1, timepoint 6 hours
[5] = 12 h, replicate number 1, timepoint 12 hours
[6] = 18 h, replicate number 1, timepoint 18 hours
[7] = 24 h, replicate number 1, timepoint 24 hours
[8] = 0 h, replicate number 1, timepoint 0 hours
[9] = 6 h, replicate number 2, timepoint 6 hours
[10] = 18 h, replicate number 2, timepoint 18 hours
[11] = 24 h, replicate number 2, timepoint 24 hours
[12] = 12 h, replicate number 2, timepoint 12 hours
Further: filed as whole numbers so only -1 and 0 and 1 occur.

Row | Compound | Growth Rate [1, 3] | Growth Rate [1, 4] | Growth Rate [1, 5] | Growth Rate [1, 6] | Growth Rate [1, 7] | Growth Rate [2, 8] | Growth Rate [2, 4] | Growth Rate [2, 5] | Growth Rate [2, 6] | Growth Rate [2, 7] | Growth Rate [1, 8] | Growth Rate [1, 9] | Growth Rate [1, 10] | Growth Rate [1, 11] | Growth Rate [2, 3] | Growth Rate [2, 9] | Growth Rate [1, 12] | Growth Rate [2, 12] | Growth Rate [2, 11] | Growth Rate [2, 10]
1 | Cc1cc(C)cc(-c2cnc3cc(Cl)c(-c4cccc(O)c4)cc3c2OCCCN)c1 | 0 | 0 | 0 | 0 | 0 | 0 | 0 | 0 | 0 | 0 | – | – | – | – | – | – | – | – | – | –
2 | Cc1sc2c(c1C)C(c1ccc(Cl)cc1)=N[C@@H](CC(=O)OC(C)(C)C)c1nnc(C)n1-2 | – | 0 | 1 | 0 | 0 | – | 0 | 0 | 0 | 0 | 0 | 1 | 1 | 1 | 0 | 1 | – | – | – | –
3 | COc1cc(-n2cnc3cc(-c4ccc(Cl)cc4)sc3c2=O)ccc1OCCN1CCCC1 | – | 0 | 0 | 0 | 0 | – | 0 | 0 | 0 | 0 | 0 | – | – | – | – | – | – | – | – | –
4 | Cc1csc2c(N[C@@H](C)CN3CCN(S(=O)(=O)c4ccc(Cl)c(Cl)c4)CC3)ncnc12 | – | – | 1 | 0 | 0 | 0 | – | 1 | 0 | 0 | 0 | 1 | – | – | – | 0 | 0 | 0 | – | –
5 | Cc1[nH]c(/C=C2\C(=O)Nc3ccc(S(=O)(=O)N(C)c4cccc(Cl)c4)cc32)c(C)c1C(=O)N1CCN(C)CC1 | 0 | – | 0 | 0 | 0 | 0 | – | – | 1 | 1 | – | – | – | – | – | – | 1 | – | – | –
6 | CNc1nc(NCc2ccc(NS(C)(=O)=O)cc2Cl)cc(-c2ccccn2)n1 | – | 0 | 0 | 0 | 0 | – | 0 | 0 | 0 | 0 | 0 | – | – | – | – | – | – | – | – | –
7 | CC(C)(O)CNc1ncc(-c2ccnc(Nc3ccnc(Cl)c3)n2)c(CC2CC2)n1 | – | 1 | 0 | 0 | 0 | – | 0 | 0 | 0 | 0 | 0 | – | 1 | 1 | 1 | 1 | – | – | – | –
8 | Cn1cc(-c2[nH]c3cc(NC(=O)[C@H](N)C4CCCCC4)cc4c3c2C=NNC4=O)cn1 | – | 0 | 0 | 0 | 0 | 0 | – | – | 1 | 1 | 0 | 1 | – | – | – | – | 1 | – | – | –
9 | C=CC(=O)Nc1cccc(C(=O)Nc2ccc(Nc3cc(-c4[nH]c(SC)nc4C)ccn3)cc2)c1 | 1 | 0 | 0 | 0 | 0 | 0 | – | 0 | 1 | 1 | 0 | – | – | – | – | 1 | – | 1 | – | –
10 | OC1(c2ccc(Cl)cc2)CCN(Cc2c[nH]c3ccccc23)CC1 | – | – | 0 | 0 | 0 | 0 | 0 | 0 | 0 | 0 | – | 0 | – | – | – | – | – | – | – | –
11 | CC(C)C(=O)Nc1n[nH]c2cc(-c3cccc(NS(=O)(=O)C4CC4)c3)ccc12 | – | 0 | 0 | 0 | 0 | 1 | 0 | 0 | 0 | 0 | 0 | – | – | – | – | – | – | – | – | –
12 | CN1C(=O)c2sccc2N(C)c2nc(Nc3ccc(S(N)(=O)=O)cc3)ncc21 | 0 | 0 | 0 | 0 | 0 | 0 | 1 | 0 | 0 | 0 | – | – | – | – | – | 0 | – | 1 | 1 | –
13 | CN(C)C(=O)/C(C#N)=C/c1ccc(-c2nc3cnc4[nH]ccc4c3n2C2CCCCC2)o1 | – | 0 | 0 | 0 | 0 | – | 1 | 0 | 0 | 0 | 0 | 1 | 1 | 1 | 0 | – | 1 | – | – | 1
14 | C=CC(=O)Nc1ccc2ncnc(Nc3ccc(OCc4cccc(F)c4)c(Cl)c3)c2c1.Cc1ccc(S(=O)(=O)O)cc1 | 1 | – | 1 | 0 | 0 | 0 | 0 | 0 | 0 | 0 | – | 0 | – | – | – | – | – | – | – | –
15 | COc1cc2nccc(Oc3ccc(NC(=O)Nc4cc(C)on4)c(Cl)c3)c2cc1OC.O | 0 | 0 | 0 | 0 | 0 | 0 | 0 | 0 | 0 | 0 | 1 | – | – | – | – | 1 | – | – | – | –
16 | CN(C)CC#Cc1ccc(OCCCc2sc(N3CCc4cccc(C(=O)Nc5nc6ccccc6s5)c4C3)nc2C(=O)O)c(F)c1 [A-1155463] | – | 0 | 0 | 0 | 0 | 0 | 0 | 0 | 0 | 0 | 0 | – | – | – | – | – | 1 | – | – | –
17 | NC(=O)Nc1cc(-c2cccc(F)c2)sc1C(=O)N[C@H]1CCCNC1 [AZD-7762] | – | 0 | 0 | 0 | 0 | – | 1 | 0 | 0 | 0 | 0 | – | – | – | 0 | – | – | – | – | 1
18 | CN1CCCC(n2nc(Cc3ccc(Cl)cc3)c3ccccc3c2=O)CC1.Cl (stereo not drawn) [AZELASTINE HYDROCHLORIDE] | – | – | – | 1 | 1 | 0 | – | 1 | 1 | 0 | 0 | 0 | – | – | – | 0 | 1 | 0 | – | 0
19 | CNCc1ccccc1-c1csc([C@H](C)Nc2nc(C)nc3cc(OC)c(OC)cc23)c1 [BAY-294] | – | 0 | 0 | 0 | 0 | – | 0 | 0 | 0 | 0 | 0 | – | – | – | – | – | – | – | – | –
20 | CN(C)c1ncnc(-c2ccc3nc(Nc4cc(CN5CCN(C(=O)CC(F)(F)F)CC5)ccn4)[nH]c3c2)c1Cl [BAY-440] | 0 | 0 | 0 | 0 | 0 | 0 | 1 | 1 | 1 | 1 | – | 1 | 1 | 1 | – | – | 1 | – | 0 | 0
21 | COc1ccc(Oc2cc(NCCC(F)(F)F)c3ncc(-c4ccc(C(=O)NC5CC5)c(C)c4)n3n2)c(F)c1F [BAY-1217389] | – | 0 | 0 | 0 | 0 | – | 0 | 0 | 0 | 0 | 0 | – | 1 | – | 1 | – | 1 | – | – | –
22 | Cc1c(-c2ccc(O)cc2)n(Cc2ccc(OCCN3CCCCCC3)cc2)c2ccc(O)cc12 [BAZEDOXIFENE] | 0 | – | 1 | 0 | 0 | 0 | 0 | 0 | 0 | 0 | – | – | 1 | – | – | – | – | – | – | –
23 | CC(C)NCC(O)COc1ccc(CCOCC2CC2)cc1.Cl (stereo not drawn) [BETAXOLOL HYDROCHLORIDE] | – | – | – | 1 | 1 | 0 | 0 | 0 | 0 | 0 | 0 | – | – | – | – | – | – | – | – | –
24 | CCOCCn1cc(C(=O)Nc2ccc(-n3nc(-c4cccnc4)cc3C(F)(F)F)cn2)ccc1=O [BI 1935] | – | 0 | 0 | 0 | 0 | – | 1 | 0 | 0 | 0 | 0 | – | – | 1 | 0 | – | – | 1 | 1 | –
25 | C[C@@]1(C(=O)Nc2ccc(F)nc2)CCCN1c1nc(Nc2cc(C3CC3)n[nH]2)c2cccn2n1 [BMS-754807] | – | 0 | 0 | 0 | 0 | – | 0 | 0 | 0 | 0 | 0 | – | – | – | – | – | – | – | – | –
26 | C=CC(=O)Nc1cc2c(Nc3ccc(F)c(Cl)c3)ncnc2cc1OCCCN1CCOCC1.Cl.Cl [CANERTINIB DIHYDROCHLORIDE] | – | 0 | 0 | 0 | 0 | 1 | 0 | 0 | 0 | 0 | – | – | – | – | – | – | – | – | – | –
27 | CN(C)C(=O)N[C@H]1CC[C@H](CCN2CCN(c3cccc(Cl)c3Cl)CC2)CC1.Cl [CARIPRAZINE HYDROCHLORIDE] | – | 0 | 1 | 1 | 1 | 0 | 0 | 0 | 1 | 1 | 1 | – | – | – | – | – | – | – | 0 | 0
28 | C[C@@H](NCCCc1cccc(C(F)(F)F)c1)c1cccc2ccccc12.Cl [CINACALCET HYDROCHLORIDE] | – | – | 1 | 0 | 0 | 1 | 0 | 0 | 0 | 0 | – | 0 | – | – | – | – | 0 | – | – | –
